Data taken from US20230085307A1, “PYRIDAZINONE COMPOUND AND HERBICIDE” (NISSAN CHEMICAL CORPORATION, priority 2019, published 2023).

Legend:
lambsquarters [1] = assay: Test Example 5: herbicidal effect by foliage application, plastic box (Table 20, symbol O); type: in vivo, lambsquarters (Chenopodium album); conditions: foliage application, 320 g/ha, evaluated three weeks after application
In short: (§1)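 Post-emergence foliar test in sterilized diluvial soil. Compound applied as water-diluted emulsion at a predetermined rate to 14-day-old plants; evaluation at three weeks.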

lambsquarters [2] = assay: Test Example 4: herbicidal effect by soil treatment (Table 19, symbol O); type: in vivo, lambsquarters (Chenopodium album); conditions: amount of applied herbicide 320 g/ha
In short: (§2)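 Emulsion of test compound, water-diluted to predetermined amount, sprayed on soil after sowing (seed depth ~1.5 cm, sterilized diluvial soil). Greenhouse, 25–30° C. Effect graded at three weeks post-spray.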

barnyard grass [3] = assay: Test Example 4: herbicidal effect by soil treatment (Table 19, symbol H); type: in vivo, barnyard grass (Echinochloa crus-galli); conditions: amount of applied herbicide 320 g/ha
In short: as §2

wild oat [4] = assay: Test Example 5: herbicidal effect by foliage application, plastic box (Table 20, symbol I); type: in vivo, wild oat (Avena fatua); conditions: foliage application, 320 g/ha, evaluated three weeks after application
In short: as §1

velvetleaf [5] = assay: Test Example 5: herbicidal effect by foliage application, plastic box (Table 20, symbol M); type: in vivo, velvetleaf (Abutilon theophrasti); conditions: foliage application, 320 g/ha, evaluated three weeks after application
In short: as §1

barnyard grass [6] = assay: Test Example 3: herbicidal effect by foliage application, Wagner pot (Table 18, symbol H); type: in vivo, barnyard grass (Echinochloa crus-galli); conditions: amount of applied herbicide 320 g/ha
In short: (§3)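 Plants were sown in alluvial soil held under 0.1–0.5 cm standing water and grown 14 days in a greenhouse at 25–30 °C. An emulsifiable formulation, water-diluted to the set dose, was then sprayed onto the foliage, and effects were scored three weeks later using previously defined criteria.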

redroot pigweed [7] = assay: Test Example 5: herbicidal effect by foliage application, plastic box (Table 20, symbol N); type: in vivo, redroot pigweed (Amaranthus retroflexus); conditions: foliage application, 320 g/ha, evaluated three weeks after application
In short: as §1

persian speedwell [8] = assay: Test Example 5: herbicidal effect by foliage application, plastic box (Table 20, symbol R); type: in vivo, Persian speedwell (Veronica persica); conditions: foliage application, 320 g/ha, evaluated three weeks after application
In short: as §1

Japanese bulrush = assay: Test Example 1: herbicidal activity, application before weed generation under submerged conditions (Table 16, symbol B); type: in vivo, Japanese bulrush (Schoenoplectus juncoides); conditions: 320 g/ha applied herbicide
In short: (§4)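 Submerged Wagner pots (alluvial soil, 4 cm water) sown with weed seeds and planted with 2.5-leaf rice seedlings; emulsifiable concentrate diluted in water applied to water surface on sowing day. Held in greenhouse at 25-30 °C; injury scored 0-5 by herbicidal rate after three weeks.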

blackgrass [9] = assay: Test Example 5: herbicidal effect by foliage application, plastic box (Table 20, symbol J); type: in vivo, blackgrass (Alopecurus myosuroides); conditions: foliage application, 320 g/ha, evaluated three weeks after application
In short: as §1

windgrass [10] = assay: Test Example 4: herbicidal effect by soil treatment (Table 19, symbol L); type: in vivo, windgrass (Apera spica-venti); conditions: amount of applied herbicide 320 g/ha
In short: as §2

rice flat sedge = assay: Test Example 3: herbicidal effect by foliage application, Wagner pot (Table 18, symbol E); type: in vivo, rice flat sedge (Cyperus iria); conditions: amount of applied herbicide 320 g/ha
In short: as §3

late watergrass = assay: Test Example 1: herbicidal activity, application before weed generation under submerged conditions (Table 16, symbol A); type: in vivo, late watergrass (Echinochloa oryzicola); conditions: 320 g/ha applied herbicide
In short: as §4

oval-leafed pondweed = assay: Test Example 1: herbicidal activity, application before weed generation under submerged conditions (Table 16, symbol C); type: in vivo, oval-leafed pondweed (Monochoria vaginalis); conditions: 320 g/ha applied herbicide
In short: as §4

chickweed [11] = assay: Test Example 4: herbicidal effect by soil treatment (Table 19, symbol P); type: in vivo, common chickweed (Stellaria media); conditions: amount of applied herbicide 320 g/ha
In short: as §2

southern crabgrass [12] = assay: Test Example 5: herbicidal effect by foliage application, plastic box (Table 20, symbol F); type: in vivo, southern crabgrass (Digitaria ciliaris); conditions: foliage application, 320 g/ha, evaluated three weeks after application
In short: as §1

windgrass [13] = assay: Test Example 5: herbicidal effect by foliage application, plastic box (Table 20, symbol L); type: in vivo, windgrass (Apera spica-venti); conditions: foliage application, 320 g/ha, evaluated three weeks after application
In short: as §1

velvetleaf [14] = assay: Test Example 4: herbicidal effect by soil treatment (Table 19, symbol M); type: in vivo, velvetleaf (Abutilon theophrasti); conditions: amount of applied herbicide 320 g/ha
In short: as §2

wild oat [15] = assay: Test Example 4: herbicidal effect by soil treatment (Table 19, symbol I); type: in vivo, wild oat (Avena fatua); conditions: amount of applied herbicide 320 g/ha
In short: as §2

green foxtail [16] = assay: Test Example 5: herbicidal effect by foliage application, plastic box (Table 20, symbol G); type: in vivo, green foxtail (Setaria viridis); conditions: foliage application, 320 g/ha, evaluated three weeks after application
In short: as §1

green foxtail [17] = assay: Test Example 4: herbicidal effect by soil treatment (Table 19, symbol G); type: in vivo, green foxtail (Setaria viridis); conditions: amount of applied herbicide 320 g/ha
In short: as §2

Italian ryegrass [18] = assay: Test Example 5: herbicidal effect by foliage application, plastic box (Table 20, symbol K); type: in vivo, Italian ryegrass (Lolium multiflorum); conditions: foliage application, 320 g/ha, evaluated three weeks after application
In short: as §1

southern crabgrass [19] = assay: Test Example 4: herbicidal effect by soil treatment (Table 19, symbol F); type: in vivo, southern crabgrass (Digitaria ciliaris); conditions: amount of applied herbicide 320 g/ha
In short: as §2

persian speedwell [20] = assay: Test Example 4: herbicidal effect by soil treatment (Table 19, symbol R); type: in vivo, Persian speedwell (Veronica persica); conditions: amount of applied herbicide 320 g/ha
In short: as §2

barnyard grass [21] = assay: Test Example 5: herbicidal effect by foliage application, plastic box (Table 20, symbol H); type: in vivo, barnyard grass (Echinochloa crus-galli); conditions: foliage application, 320 g/ha, evaluated three weeks after application
In short: as §1

Chinese sprangletop = assay: Test Example 3: herbicidal effect by foliage application, Wagner pot (Table 18, symbol D); type: in vivo, chinese sprangletop (Leptochloa chinensis); conditions: amount of applied herbicide 320 g/ha
In short: as §3

blackgrass [22] = assay: Test Example 4: herbicidal effect by soil treatment (Table 19, symbol J); type: in vivo, blackgrass (Alopecurus myosuroides); conditions: amount of applied herbicide 320 g/ha
In short: as §2

Italian ryegrass [23] = assay: Test Example 4: herbicidal effect by soil treatment (Table 19, symbol K); type: in vivo, Italian ryegrass (Lolium multiflorum); conditions: amount of applied herbicide 320 g/ha
In short: as §2

chickweed [24] = assay: Test Example 5: herbicidal effect by foliage application, plastic box (Table 20, symbol P); type: in vivo, common chickweed (Stellaria media); conditions: foliage application, 320 g/ha, evaluated three weeks after application
In short: as §1

redroot pigweed [25] = assay: Test Example 4: herbicidal effect by soil treatment (Table 19, symbol N); type: in vivo, redroot pigweed (Amaranthus retroflexus); conditions: amount of applied herbicide 320 g/ha
In short: as §2

| SMILES | herbicidal effect on O: lambsquarters (criteria 0-5) (lambsquarters [1]) | O: lambsquarters, herbicidal effect rating (lambsquarters [2]) | H: barnyard grass, herbicidal effect rating (barnyard grass [3]) | herbicidal effect on I: wild oat (criteria 0-5) (wild oat [4]) | herbicidal effect on M: velvetleaf (criteria 0-5) (velvetleaf [5]) | herbicidal effect on H: barnyard grass (barnyard grass [6]) | herbicidal effect on N: redroot pigweed (criteria 0-5) (redroot pigweed [7]) | herbicidal effect on R: persian speedwell (criteria 0-5) (persian speedwell [8]) | Herbicidal effect on B: Japanese bulrush (grade 0-5) (Japanese bulrush) | herbicidal effect on J: blackgrass (criteria 0-5) (blackgrass [9]) | L: windgrass, herbicidal effect rating (windgrass [10]) | herbicidal effect on E: rice flat sedge (rice flat sedge) | Herbicidal effect on A: late watergrass (grade 0-5) (late watergrass) | Herbicidal effect on C: oval-leafed pondweed (grade 0-5) (oval-leafed pondweed) | P: chickweed, herbicidal effect rating (chickweed [11]) | herbicidal effect on F: southern crabgrass (criteria 0-5) (southern crabgrass [12]) | herbicidal effect on L: windgrass (criteria 0-5) (windgrass [13]) | M: velvetleaf, herbicidal effect rating (velvetleaf [14]) | I: wild oat, herbicidal effect rating (wild oat [15]) | herbicidal effect on G: green foxtail (criteria 0-5) (green foxtail [16]) | also measured |
| --- | --- | --- | --- | --- | --- | --- | --- | --- | --- | --- | --- | --- | --- | --- | --- | --- | --- | --- | --- | --- | --- |
| COc1ccccc1-c1sc2ccc(C#N)cc2c1-c1c(O)c(C)nn(C)c1=O [2-190] | 2 (Herbicidal rate of 20% or more and less than 40%) | 5 (Herbicidal rate of 90% or more (almost completely withered)) | 0 (Herbicidal rate of 5% or less (almost no effect)) | 0 (Herbicidal rate of 5% or less (almost no effect)) | 3 (Herbicidal rate of 40% or more and less than 70%) | 2 (Herbicidal rate of 20% or more and less than 40%) | 3 (Herbicidal rate of 40% or more and less than 70%) | 5 (Herbicidal rate of 90% or more (almost completely withered)) | 0 (Herbicidal rate of 5% or less (almost no effect)) | 0 (Herbicidal rate of 5% or less (almost no effect)) | 0 (Herbicidal rate of 5% or less (almost no effect)) | 4 (Herbicidal rate of 70% or more and less than 90%) | 3 (Herbicidal rate of 40% or more and less than 70%) | 0 (Herbicidal rate of 5% or less (almost no effect)) | 0 (Herbicidal rate of 5% or less (almost no effect)) | 0 (Herbicidal rate of 5% or less (almost no effect)) | 0 (Herbicidal rate of 5% or less (almost no effect)) | 0 (Herbicidal rate of 5% or less (almost no effect)) | 0 (Herbicidal rate of 5% or less (almost no effect)) | 0 (Herbicidal rate of 5% or less (almost no effect)) | G: green foxtail, herbicidal effect rating (green foxtail [17]): 0 (Herbicidal rate of 5% or less (almost no effect)); herbicidal effect on K: Italian ryegrass (criteria 0-5) (Italian ryegrass [18]): 0 (Herbicidal rate of 5% or less (almost no effect)); F: southern crabgrass, herbicidal effect rating (southern crabgrass [19]): 0 (Herbicidal rate of 5% or less (almost no effect)); R: persian speedwell, herbicidal effect rating (persian speedwell [20]): 0 (Herbicidal rate of 5% or less (almost no effect)); herbicidal effect on H: barnyard grass (criteria 0-5) (barnyard grass [21]): 0 (Herbicidal rate of 5% or less (almost no effect)); herbicidal effect on D: Chinese sprangletop (Chinese sprangletop): 2 (Herbicidal rate of 20% or more and less than 40%); J: blackgrass, herbicidal effect rating (blackgrass [22]): 0 (Herbicidal rate of 5% or less (almost no effect)); K: Italian ryegrass, herbicidal effect rating (Italian ryegrass [23]): 0 (Herbicidal rate of 5% or less (almost no effect)); herbicidal effect on P: chickweed (criteria 0-5) (chickweed [24]): 5 (Herbicidal rate of 90% or more (almost completely withered)); N: redroot pigweed, herbicidal effect rating (redroot pigweed [25]): 3 (Herbicidal rate of 40% or more and less than 70%) |
| CCCC(=O)Oc1c(C)nn(C)c(=O)c1-c1c(-c2ccccc2F)sc2ccc(F)cc12 [2-200] | 3 (Herbicidal rate of 40% or more and less than 70%) | 4 (Herbicidal rate of 70% or more and less than 90%) | 3 (Herbicidal rate of 40% or more and less than 70%) | 0 (Herbicidal rate of 5% or less (almost no effect)) | 5 (Herbicidal rate of 90% or more (almost completely withered)) | 4 (Herbicidal rate of 70% or more and less than 90%) | 5 (Herbicidal rate of 90% or more (almost completely withered)) | 4 (Herbicidal rate of 70% or more and less than 90%) | 0 (Herbicidal rate of 5% or less (almost no effect)) | 1 (Herbicidal rate of 5% or more and less than 20%) | 0 (Herbicidal rate of 5% or less (almost no effect)) | 5 (Herbicidal rate of 90% or more (almost completely withered)) | 3 (Herbicidal rate of 40% or more and less than 70%) | 0 (Herbicidal rate of 5% or less (almost no effect)) | 1 (Herbicidal rate of 5% or more and less than 20%) | 2 (Herbicidal rate of 20% or more and less than 40%) | 3 (Herbicidal rate of 40% or more and less than 70%) | 0 (Herbicidal rate of 5% or less (almost no effect)) | 0 (Herbicidal rate of 5% or less (almost no effect)) | 4 (Herbicidal rate of 70% or more and less than 90%) | G: green foxtail, herbicidal effect rating (green foxtail [17]): 1 (Herbicidal rate of 5% or more and less than 20%); herbicidal effect on K: Italian ryegrass (criteria 0-5) (Italian ryegrass [18]): 4 (Herbicidal rate of 70% or more and less than 90%); F: southern crabgrass, herbicidal effect rating (southern crabgrass [19]): 1 (Herbicidal rate of 5% or more and less than 20%); R: persian speedwell, herbicidal effect rating (persian speedwell [20]): 3 (Herbicidal rate of 40% or more and less than 70%); herbicidal effect on H: barnyard grass (criteria 0-5) (barnyard grass [21]): 3 (Herbicidal rate of 40% or more and less than 70%); herbicidal effect on D: Chinese sprangletop (Chinese sprangletop): 5 (Herbicidal rate of 90% or more (almost completely withered)); J: blackgrass, herbicidal effect rating (blackgrass [22]): 0 (Herbicidal rate of 5% or less (almost no effect)); K: Italian ryegrass, herbicidal effect rating (Italian ryegrass [23]): 3 (Herbicidal rate of 40% or more and less than 70%); herbicidal effect on P: chickweed (criteria 0-5) (chickweed [24]): 5 (Herbicidal rate of 90% or more (almost completely withered)); N: redroot pigweed, herbicidal effect rating (redroot pigweed [25]): 4 (Herbicidal rate of 70% or more and less than 90%) |
